Results: patent publication US20250057823A1, “COMPOSITION FOR IMPROVING CARDIAC FUNCTION” (Kyoto University, priority 2021, published 2025)
Entries after “also recorded” stand apart in the source; their conditions may differ. Counter-ions that a name gives are not always drawn.

What was measured:
Assay type in all cases: in vivo
[1] = system: mouse models of pressure overload-induced cardiac hypertrophy/heart failure (TAC); assay: Mouse models of pressure overload-induced (TAC) heart failure during acute phase; conditions: TAC mice, 50 mg/kg i.p. immediately after TAC, three hours later
Procedure: (§1) Transverse aortic constriction (TAC) was performed as described previously [Date, et al. (2002) The antioxidant N-2-mercaptopropionyl glycine attenuates left ventricular hypertrophy in in vivo murine pressure-overload model. J Am Coll Cardiol 39: 907-912.]. Briefly, 8- to 10-week-old mice were anesthetized with anesthetic (0.3 mg/kg of medetomidine, 4.0 mg/kg of midazolam, and 5.0 mg/kg of butorphanol) administered intraperitoneally, and the proximal portion of the sternum was cut open to visualize the aorta. A 7-0 silk suture was placed around the aortic arch distal to the brachiocephalic artery. The suture was tightened firmly around a blunt 26-gauge needle placed adjacent to the aorta. The needle was then removed, and the chest and overlying skin were closed. Sham-operated mice underwent an identical surgical procedure without ligation of the aortic arch. At the end of the operation, 0.3 mg/kg of atipamezole was administered subcutaneously to reverse medetomidine. FIG. 1 is a schematic diagram of TAC.
To extract total RNA, tissue samples were homogenized using a polytron homogenizer in 1 mL of TriPure reagent (Sigma-Aldrich), and the total RNA was extracted in accordance with the manufacture's protocol. Total RNA extracted from cells was also isolated using 1 mL of TriPure reagent. The quantity and quality of total RNA were determined using a NanoDrop™2000 spectrophotometer (Thermo Scientific).
Total RNA was reverse transcribed by blend primer of random hexamers and oligo-dT 3:1 (volume/volume) using Verso™ cDNA Synthesis Kit (Thermo Fisher Scientific, AB1453A) in accordance with the manufacturer's protocol, and the cDNA was analyzed by qRT-PCR. qRT-PCR measurements used THUNDERBIRD SYBR qPCR Mix (TOYOBO) in accordance with the manufacturer's instructions. Expression levels of messenger RNAs (mRNAs) were normalized by the indicated housekeeping genes, and calculated by the 2^−ΔΔCt method. All analyses were performed using a StepOnePlus real-time PCR system and StepOne Software v2.3 (Applied Biosystems, Inc). […]

[2] = system: mouse models of pressure overload-induced cardiac hypertrophy/heart failure (TAC); assay: Mouse models of TAC heart failure during heart failure phase; conditions: 50 mg/kg i.p. daily for 3 weeks starting 5 weeks after TAC
Procedure: as §1
Total RNA was reverse transcribed by blend primer of random hexamers and oligo-dT 3:1 (volume/volume) using Verso™ cDNA Synthesis Kit (Thermo Fisher Scientific, AB1453A) in accordance with the manufacturer's protocol, and the cDNA was analyzed by qRT-PCR. qRT-PCR measurements used THUNDERBIRD SYBR qPCR Mix (TOYOBO) in accordance with the manufacturer's instructions. Expression levels of messenger RNAs (mRNAs) were normalized by the indicated housekeeping genes, and calculated by the 2^−ΔΔCt method. All analyses were performed using a StepOnePlus real-time PCR system and StepOne Software v2.3 (Applied Biosystems, Inc).
Tissues were fixed with 4% paraformaldehyde, dehydrated with 70% ethanol, and then embedded in paraffin. Deparaffinized sections were stained with hematoxylin solution for cell nucleus, and stained with eosin solution for cytoplasm. Images were captured by Axio Observer7 (Zeiss). Cardiomyocyte cross-sectional area measurement was performed using ImageJ64 software (NIH). Approximately 150-200 cells were measured per heart, and averages were used for the analysis.
As described above, deparaffinized sections were stained with hematoxylin solution for cell nucleus, Masson solution for cytoplasm, and aniline blue for collagen fiber. Images were captured by a microscopy (BZ-9000, Keyence). Aniline blue-stained regions were measured using ImageJ64 software (NIH).
(§2) To analyze the cardiac function, we used Vevo® 2100 (VISUALSONICS) at the indicated time points after TAC operation. Mice were kept under inhalation anesthesia with 2.5% isoflurane. LV function was measured in M mode of the parasternal short-axis view.
Mouse models of pressure overload-induced cardiac hypertrophy/heart failure were prepared by TAC and were injected intraperitoneally with 50 mg/kg of KUS121 daily for 3 weeks starting 5 weeks after TAC. Sham-operated mice and control mice were injected with 5% glucose. Echocardiography was performed 5 weeks and 8 weeks after TAC. Eight weeks after TAC, the mice were sacrificed, the body weight and heart weight were measured, and heart samples were collected.

TAC mice = assay: Acute effect on mouse models of heart failure (TAC, single injection 5 weeks later)
Procedure: as §1, §2
Mice were subjected to TAC at 8 weeks of age. Five weeks later (at 13 weeks of age), the mice were injected with KUS121 (50 mg/kg), and left ventricular ejection fraction (LVEF), left ventricular end-diastolic diameter (LVDd), and heart rate (HR) were assessed by echocardiography before and 10 minutes after the injection.
Mice were subjected to TAC at 8 weeks of age. Five weeks later (at 13 weeks of age), the mice were injected with KUS121 (50 mg/kg), and left ventricular pressure was measured by catheterization before and 10 minutes after the injection. The left ventricular pressure was 46.6 mmHg before KUS121 administration, and increased to 128.9 mmHg 10 minutes after the administration. In addition, Max/min dp/dt was changed from 1295.5/−621.4 mmHg/s to 3972.8/−1311.1 mmHg/s. […] Left ventricular ejection fraction was then measured over time and was 37% before KUS121 administration, increased to 67% 5 minutes after the administration, and returned to the baseline about 2 hours after the administration (FIG. 16).
Mice were subjected to TAC at 8 weeks of age. Five weeks later (at 13 weeks of age), the mice were injected with KUS187 (50 mg/kg), and left ventricular ejection fraction was assessed by echocardiography before and 10 minutes after the injection.

[3] = TAC mice 5 weeks after TAC, 50 mg/kg, echocardiography before and 10 minutes after injection

Cc1cc(F)ccc1-c1ccc(/N=N/c2cc(S(=O)(=O)O)c3ccccc3c2N)cn1 [KUS121, 4-amino-3-[6-(4-fluoro-2-methylphenyl)pyridine-3-ylazo]naphthalene-1-sulfonic acid sodium salt]
ratio of heart weight to body weight [1]: not significantly affected | mRNA level of BNP ([1]; vs 5% glucose control): suppressed the increases | ratio of lung weight to body weight ([1]; vs 5% glucose control): suppressed the increases | cardiomyocyte cross-sectional area ([2]; TAC mice): suppressed it | fibrotic area in Masson's trichrome-stained heart ([2]; TAC mice): suppressed | heart weight ([2]; TAC mice, 8 weeks after TAC): suppressed the increase in heart weight | left ventricular systolic dysfunction (LVEF, echocardiography) ([2]; TAC mice, 8 weeks after TAC): suppressed the dysfunction | mRNA level of Col1a1 (cardiac fibrosis marker) ([2]; heart, qRT-PCR): suppressed | mRNA level of Postn (cardiac fibrosis marker) ([2]; heart, qRT-PCR): suppressed | mRNA level of VCP ([2]; heart, qRT-PCR): increased the mRNA level of VCP | mRNA levels of ANF, BNP, CHOP and Bip (other cardiac hypertrophy and endoplasmic reticulum stress markers) ([2]; heart, qRT-PCR): did not significantly affect the other mRNA levels | left ventricular ejection fraction (TAC mice; 5 minutes after 50 mg/kg, 37% before administration): 67% | heart rate (HR) (TAC mice; TAC mice 5 weeks after TAC, 50 mg/kg, before and 10 minutes after injection, sodium salt, 50 mg/kg): without significantly affecting heart rate; also recorded: without affecting HR | left ventricular ejection fraction (LVEF) (TAC mice; [3]): Recoveries | left ventricular end-diastolic diameter (LVDd) (TAC mice; [3]): Recoveries | time after administration at which left ventricular ejection fraction returned to the baseline (TAC mice; TAC mice, 50 mg/kg, LVEF measured over time): about 2 hours | left ventricular pressure (TAC mice; catheterization, 10 minutes after 50 mg/kg, 46.6 mmHg before administration): 128.9 mmHg | Max dp/dt (TAC mice; catheterization, 10 minutes after 50 mg/kg, 1295.5 mmHg/s before administration): 3972.8 mmHg/s | min dp/dt (TAC mice; catheterization, 10 minutes after 50 mg/kg, −621.4 mmHg/s before administration): −1311.1 mmHg/s
